We go through one molecule from US20240316051A1, “A PHARMACEUTICAL COMBINATION AND USE THEREOF” (Ascentage Pharma (Suzhou) Co., Ltd., priority 2021, published 2024).

The experiment concerns the target T1, EED (1-441)-His protein (Homo sapiens, UniProt O75530).
T1 construct: 20 nM EED (1-441)-His protein
Briefly: EED-H3K27Me3 peptide competition binding assay by AlphaScreen. The following applies: Table 4A, read-out: Alpha screen. The gist of the method: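 Readout was AlphaScreen emission at 615 nm after 680 nm excitation, with 10 μg/ml final each of streptavidin donor and nickel chelate acceptor beads, 1 h at RT in the dark. Beforehand, compound met the His-tagged EED(1-441) for 15 min and then biotinylated H3K27Me3(19-33) peptide for 30 min; both were added as 20 nM solutions, buffer 25 mM HEPES pH 8, Tween-20, BSA. Percent activity left was fitted to give IC50.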
(In general: In Alpha technology, singlet oxygen from a donor bead excites a nearby acceptor bead.)

T1 sequence (O75530 whole entry): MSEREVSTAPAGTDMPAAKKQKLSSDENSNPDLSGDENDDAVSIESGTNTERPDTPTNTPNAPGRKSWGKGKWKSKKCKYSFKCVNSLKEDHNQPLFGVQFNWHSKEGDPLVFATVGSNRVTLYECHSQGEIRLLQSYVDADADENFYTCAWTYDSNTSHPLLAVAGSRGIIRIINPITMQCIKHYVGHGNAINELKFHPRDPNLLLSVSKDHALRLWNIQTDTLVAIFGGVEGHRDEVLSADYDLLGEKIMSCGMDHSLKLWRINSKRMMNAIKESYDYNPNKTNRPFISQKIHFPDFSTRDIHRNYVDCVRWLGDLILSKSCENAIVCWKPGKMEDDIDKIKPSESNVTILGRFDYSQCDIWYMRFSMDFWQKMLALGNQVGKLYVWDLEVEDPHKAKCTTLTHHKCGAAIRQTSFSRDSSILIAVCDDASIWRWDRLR

On to `CC(C)N1Cc2cc(C(F)(F)F)ncc2-c2cnc(NCc3c(F)ccc4c3CCO4)n3cnc(c23)C1=O` [Compound 73, 12-(((5-fluoro-2,3-dihydrobenzofuran-4-yl)methyl)amino)-4-isopropyl-7-(trifluoromethyl)-4,5-dihydro-3H-2,4,8,11,12a-pentaazabenzo[4,5]cycloocta[1,2,3-cd]inden-3-one], for which the IC50 was 0.5 nM.
